Assay results from PubChem BioAssay AID1259407 (Chemical Carcinogenesis Research Information System (CCRIS), 2018).
Calls of active or inactive are those of the source. No rule for the calls is given here.

System: CCRIS mutagenicity, Ames/micronucleus/aberration tests
Assay: CCRIS mutagenicity studies
Details: Test System: AMES SALMONELLA TYPHIMURIUM, Method: PREINCUBATION

Measured: mutagenic call

Clc1nncc2ccncc12
inactive: Strain/Indicator: TA98, Metabolic Activation: NONE inactive; negative | Strain/Indicator: TA98, Metabolic Activation: RAT, LIVER, S-9, PCB inactive; negative | Strain/Indicator: TA100, Metabolic Activation: NONE inactive; negative | Strain/Indicator: TA100, Metabolic Activation: RAT, LIVER, S-9, PCB inactive; negative
